This is an account of results in patent US20230091047A1 (priority 2019, published 2023).

SMILES strings stand for the structures. Where two headings read alike, the source gives them in different places. Where only a bound is given, the exact number is not on record here.

One series relates to HepG2 cells. Briefly: in vitro. It is filed as cell-based. The following applies: HepG2 or HepG2.117 cells, ATPlite, mean value, read-out: CC50 (μM, mean value). The method in brief: (§1)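 Luminescent ATP quantitation served as the viability endpoint following a 3- or 4-day incubation with test compounds.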
Series [1] deals with HBV (HepG2.117 cell line, inducibly HBV producing). Briefly: Anti-HBV activity: intracellular HBV DNA by real-time PCR in HepG2.117 cells after 3 days of treatment. It is filed as cell-based, hepatitis B virus. The following applies: read-out: EC50 (μM, mean value). The method in brief:
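Antiviral effect is expressed through intracellular HBV DNA levels, determined by real-time PCR with a virus-specific probe. These levels were measured after 3 days of treatment with compound dilutions, in HepG2.117 cells induced to replicate HBV.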
For orientation: Real-time PCR tracks product formation cycle by cycle.

A short description of a further series: in vitro. The settings on record: human, HepG2 or HepG2.117 cells, ATPlite, mean value. It is filed as cell-based. The method, boiled down:
as §1
For orientation: Cellular ATP, detected with luciferase, serves as a proxy for viable cell number.

Setting [2] is: 3-days incubation (not marked with *).
[3] abbreviates: 3-days incubation (unmarked values).
Where [4] appears, read: Hepatitis B virus, HepG2.117, 72 h, HepG2.117 cells, intracellular HBV DNA by real-time PCR, 3 days of treatment, mean value.
The mark [5] stands for this setting: Hepatitis B virus, HepG2.117, 72 h, HepG2.117 cells, 3 days of treatment, intracellular HBV DNA by real-time PCR, mean value.

As a reminder, the CC50 is the concentration that lowers cell viability or growth by half. What is called EC50 is the concentration giving half of the maximal effect.

Regarding `Cc1c[nH]c(-c2ccc(-n3c(NC(C)C)nc4c(c3=O)C[C@@H](C)N(C(=O)c3ccc(Cl)c(Cl)c3)C4)c(Cl)c2)n1` (single isomer, unassigned) [Compound C455b], the CC50 in the series with HepG2 cells (setting [2]) was over 50 µM. Also, the EC50 in series [1] (HepG2.117 cells, intracellular HBV DNA by real-time PCR, 3 days of treatment, mean value) is 0.1 µM.

As for `CC(C)Nc1nc2c(c(=O)n1-c1ccc(S(C)(=O)=O)cc1)C[C@H](C)N(C(=O)c1ccc(Cl)c(Cl)c1)C2` [Compound C141, (6S)-7-(3,4-dichlorobenzoyl)-3-[4-(methanesulfonyl)phenyl]-6-methyl-2-[(propan-2-yl)amino]-5,6,7,8-tetrahydropyrido[3,4-d]pyrimidin-4(3H)-one], the cytotoxic concentration (CC50) in the series on HepG2 cells (setting [3]) is over 50 µM.

`CNC(=O)c1ccc(-n2c(N[C@@H](C)c3ccc4[nH]cnc4c3)nc3c(c2=O)C[C@@H](C)N(C(=O)c2ccc(Cl)c(Cl)c2)C3)cc1` (single isomer, unassigned) [Compound C647b] showed a 50% cytotoxic concentration (CC50) at 3 days in “in vitro” (setting [2]) of over 50 µM. Besides, in series [1] (setting [4]), the concentration giving a half-maximal response (EC50) is over 2.5 µM.

For the compound `COc1ccc(CNc2nc3c(c(=O)n2-c2ccc(S(C)(=O)=O)cc2)CC(c2ccc(F)cc2)N(C(=O)c2ccc(Cl)c(Cl)c2)C3)cc1` (centres unmarked) [Compound C109, 7-(3,4-dichlorobenzoyl)-6-(4-fluorophenyl)-3-[4-(methanesulfonyl)phenyl]-2-{[(4-methoxyphenyl)methyl]amino}-5,6,7,8-tetrahydropyrido[3,4-d]pyrimidin-4(3H)-one], in “in vitro” (setting [3]), the CC50 at 3 days is over 50 µM. Moreover, in series [1] (Hepatitis B virus, HepG2.117, 72 h), the concentration for a half-maximal effect (EC50) was 2.11 µM.

Consider `CNC(=O)[C@H]1CC[C@H](n2c(NC(C)C)nc3c(c2=O)C[C@@H](C)N(C(=O)c2ccc(Cl)c(Cl)c2)C3)CC1` [Compound C255, trans-4-[(6R)-7-(3,4-dichlorobenzoyl)-6-methyl-4-oxo-2-[(propan-2-yl)amino]-5,6,7,8-tetrahydropyrido[3,4-d]pyrimidin-3(4H)-yl]-N-methylcyclohexane-1-carboxamide], for which the half-maximal cytotoxic concentration (CC50) at 3 days in the series “in vitro” (setting [3]) was over 50 µM. The EC50 in series [1] (setting [5]) came to 0.09 µM.

With `Cc1ncccc1-n1c(NC(C)C)nc2c(c1=O)CCN(C(=O)c1ccc(Cl)c(Cl)c1)C2` [Compound C99, 7-(3,4-dichlorobenzoyl)-3-(2-methylpyridin-3-yl)-2-[(propan-2-yl)amino]-5,6,7,8-tetrahydropyrido[3,4-d]pyrimidin-4(3H)-one], in the series “in vitro” (setting [3]), the CC50 at 3 days was found to be 28.3 µM. In addition, in series [1] (setting [5]), the EC50 turned out to be 2.05 µM.

Compound `CNC(=O)c1ccc(-n2c(NC(C)C)nc3c(c2=O)C[C@@H](C)N(C(=O)c2ccc(Cl)c(C(F)(F)F)c2)C3)c(Cl)c1` (single isomer, unassigned) [Compound C639a] showed a half-maximal cytotoxic concentration (CC50) at 3 days in the series “in vitro” (setting [2]) of over 50 µM. In addition, the EC50 in series [1] (setting [4]) is 0.02 µM.

With `CNc1[nH]nc2cc(-n3c(NC(C)C)nc4c(c3=O)C[C@@H](C)N(C(=O)c3ccc(Cl)c(Cl)c3)C4)ccc12` [Compound C627], the cytotoxic concentration (CC50) at 3 days in the series “in vitro” (setting [2]) came out at 33.6 µM. In addition, the EC50 in series [1] (setting [4]) came out at 0.12 µM.

`Cc1nc(-c2ccc(-n3c(NC(C)C)nc4c(c3=O)C[C@@H](C)N(C(=O)c3ccc(Cl)c(Cl)c3)C4)cc2)c[nH]1` [Compound C244, (6R)-7-(3,4-dichlorobenzoyl)-6-methyl-3-[4-(2-methyl-1H-imidazol-4-yl)phenyl]-2-[(propan-2-yl)amino]-5,6,7,8-tetrahydropyrido[3,4-d]pyrimidin-4(3H)-one] returned a cytotoxic concentration (CC50) at 3 days in the series “in vitro” (setting [3]) of 22.9 µM. In addition, the EC50 in series [1] (setting [5]) is 0.12 µM.

For the compound `CNC(=O)c1ccc(-n2c(N[C@H](C)c3ccc(OC)cc3)nc3c(c2=O)C[C@@H](C)N(C(=O)c2ccc(Cl)c(Cl)c2)C3)cc1` (single isomer, unassigned) [Compound C347a], it took 35.1 µM to reach half-maximal cytotoxicity in the series “in vitro” (setting [2]) (CC50 at 3 days). In addition, in series [1] (setting [4]), the EC50 was determined as 0.1 µM.

Regarding `CNC(=O)c1ccc(-n2c(N[C@@H](C)c3ccc(OC(F)(F)F)cc3)nc3c(c2=O)C[C@@H](C)N(C(=O)c2ccc(Cl)c(Cl)c2)C3)cc1` (single isomer, unassigned) [Compound C440b], the 50% cytotoxic concentration (CC50) at 3 days in “in vitro” (setting [2]) was 6.3 µM. Further, in series [1] (setting [4]), the EC50 is 0.07 µM.

In the series “in vitro” (setting [2]), `CC(C)Nc1nc2c(c(=O)n1-c1cccc(-n3ccnn3)c1)C[C@@H](C)N(C(=O)c1ccc(Cl)c(Cl)c1)C2` [Compound C442] showed a CC50 at 3 days of over 50 µM. Further, the 50% effective concentration (EC50) in series [1] (setting [4]) came to 0.21 µM.

In “in vitro” (setting [2]), `CNC(=O)c1cc(-n2c(N[C@@H](C)c3ccc(OC(F)(F)F)cc3)nc3c(c2=O)C[C@@H](C)N(C(=O)c2ccc(Cl)c(Cl)c2)C3)nn1C` [Compound C622] had a CC50 at 3 days of over 50 µM. Moreover, in series [1] (setting [4]), the EC50 came out at 0.07 µM.

`COc1ccc(CNc2nc3c(c(=O)n2Cc2ccccc2)CCN(C(=O)c2ccc(Cl)c(Cl)c2)C3)cc1` [Compound C41, 3-benzyl-7-(3,4-dichlorobenzoyl)-2-{[(4-methoxyphenyl)methyl]amino}-5,6,7,8-tetrahydropyrido[3,4-d]pyrimidin-4(3H)-one] came in with a CC50 at 3 days in the series “in vitro” (setting [3]) of over 50 µM. Moreover, the EC50 in series [1] (setting [5]) stood at 8.7 µM.

`CNC(=O)c1ccc(-n2c(NC(C)C)nc3c(c2=O)C[C@@H](C)N(C(=O)c2cc(C)c(C)c(Br)c2)C3)cc1` [Compound C578] came in with a CC50 at 3 days in the series “in vitro” (setting [2]) of 33.2 µM. In addition, the concentration giving a half-maximal response (EC50) in series [1] (setting [4]) was 0.11 µM.

Turning to `CNC(=O)c1ccc(-n2c(NC(C)c3cc(C)no3)nc3c(c2=O)C[C@@H](C)N(C(=O)c2ccc(Cl)c(Cl)c2)C3)cc1` (some centres unmarked) [Compound C433], the CC50 at 3 days in the series “in vitro” (setting [2]) is over 50 µM. The 50% effective concentration (EC50) in series [1] (setting [4]) amounted to 0.33 µM.

In turn, `CNC(=O)c1ccc(-n2c(N[C@@H](C)c3ccc(F)cc3F)nc3c(c2=O)C[C@@H](C)N(C(=O)c2ccc(Cl)c(Cl)c2)C3)cc1` (single isomer, unassigned) [Compound C689b] came in with a half-maximal cytotoxic concentration (CC50) at 3 days in the series “in vitro” (setting [2]) of 27.3 µM. For the same compound, the EC50 in series [1] (setting [4]) worked out at 0.46 µM.

Consider `CC(C)Nc1nc2c(c(=O)n1-c1ccc(S(C)(=O)=O)cc1)CCN(C(=O)c1cc3ccccc3s1)C2` [Compound C182, 7-(1-benzothiophene-2-carbonyl)-3-[4-(methanesulfonyl)phenyl]-2-[(propan-2-yl)amino]-5,6,7,8-tetrahydropyrido[3,4-d]pyrimidin-4(3H)-one], for which, in “in vitro” (setting [3]), the CC50 at 3 days was over 50 µM. In addition, the EC50 in series [1] (setting [5]) is 3.14 µM.

`CNC(=O)c1ccc(-n2c(NC(C)C)nc3c(c2=O)C[C@@H](C)N(C(=O)c2cc4ccc(Br)c(F)c4[nH]2)C3)cc1` [Compound C568] returned a CC50 at 3 days in the series “in vitro” (setting [2]) of 25.8 µM. The EC50 in series [1] (setting [4]) turned out to be 0.02 µM.

As to `CNC(=O)OCC[C@@H](Nc1nc2c(c(=O)n1-c1ccc(C(=O)NC)cc1)C[C@@H](C)N(C(=O)c1ccc(Cl)c(Cl)c1)C2)C1CC1` (single isomer, unassigned) [Compound C256, (3*R)-3-cyclopropyl-3-({(6R)-7-(3,4-dichlorobenzoyl)-6-methyl-3-[4-(methylcarbamoyl)phenyl]-4-oxo-3,4,5,6,7,8-hexahydropyrido[3,4-d]pyrimidin-2-yl}amino)propyl methylcarbamate], in the series “in vitro” (setting [3]), the CC50 at 3 days was over 50 µM. In addition, in series [1] (setting [5]), the EC50 turned out to be 3.26 µM.

In the series “in vitro” (setting [2]), `CNC(=O)c1ccc(-n2c(NC3CCOC3)nc3c(c2=O)C[C@@H](C)N(C(=O)c2ccc(Cl)c(Cl)c2)C3)cc1` (some centres unmarked) [Compound C559] showed a CC50 at 3 days of over 50 µM. Also, the EC50 in series [1] (setting [4]) was 0.6 µM.

Compound `COc1cccnc1-c1ccc(-n2c(NC(C)C)nc3c(c2=O)CCN(C(=O)c2ccc(Cl)c(Cl)c2)C3)cc1` [Compound C172, 7-(3,4-dichlorobenzoyl)-3-[4-(3-methoxypyridin-2-yl)phenyl]-2-[(propan-2-yl)amino]-5,6,7,8-tetrahydropyrido[3,4-d]pyrimidin-4(3H)-one] registered a CC50 at 3 days in “in vitro” (setting [3]) of 5.3 µM. Also, the EC50 in series [1] (setting [5]) was determined as 1.66 µM.

Turning to `CNC(=O)c1ccc(-n2c(N(C)Cc3cn(C)nn3)nc3c(c2=O)C[C@@H](C)N(C(=O)c2ccc(Cl)c(Cl)c2)C3)cc1` [Compound C479], the CC50 at 3 days in the series “in vitro” (setting [2]) is over 50 µM. The EC50 in series [1] (setting [4]) was 3.81 µM.

`CC[C@@H](C)Nc1nc2c(c(=O)n1-c1ccc(C(=O)NC)cc1)C[C@@H](C)N(C(=O)c1ccc(Cl)c(Cl)c1)C2` [Compound C258, 4-[(6R)-2-{[(2R)-butan-2-yl]amino}-7-(3,4-dichlorobenzoyl)-6-methyl-4-oxo-5,6,7,8-tetrahydropyrido[3,4-d]pyrimidin-3(4H)-yl]-N-methylbenzamide]: the CC50 at 3 days in “in vitro” (setting [3]) is over 50 µM. In series [1] (setting [5]), the 50% effective concentration (EC50) was determined as 0.05 µM.

With `COc1ccc(CNc2nc3c(c(=O)n2-c2ccc(N4CCOCC4)cc2)CCN(C(=O)c2ccc(Cl)c(Cl)c2)C3)cc1` [Compound C128, 7-(3,4-dichlorobenzoyl)-2-{[(4-methoxyphenyl)methyl]amino}-3-[4-(morpholin-4-yl)phenyl]-5,6,7,8-tetrahydropyrido[3,4-d]pyrimidin-4(3H)-one], the CC50 at 3 days in “in vitro” (setting [3]) is over 50 µM. For the same compound, the EC50 in series [1] (setting [5]) turned out to be 1.06 µM.

As to `CC(C)Nc1nc2c(c(=O)n1[C@H]1CC[C@@H](S(C)(=O)=O)CC1)C[C@@H](C)N(C(=O)c1ccc(Cl)c(Cl)c1)C2` [Compound C262, (6R)-7-(3,4-dichlorobenzoyl)-3-[cis-4-(methanesulfonyl)cyclohexyl]-6-methyl-2-[(propan-2-yl)amino]-5,6,7,8-tetrahydropyrido[3,4-d]pyrimidin-4(3H)-one], in “in vitro” (setting [3]), it took 22.5 µM to reach half-maximal cytotoxicity (CC50 at 3 days). Besides, the concentration giving a half-maximal response (EC50) in series [1] (setting [5]) came out at 0.11 µM.

Consider `CNC(=O)c1ccc(-n2c(NC(C)C)nc3c(c2=O)C[C@@H](C)N(C(=O)c2cc(Cl)c(Cl)cn2)C3)cc1` [Compound C674], for which the CC50 at 3 days in “in vitro” (setting [2]) is over 50 µM. Also, the EC50 in series [1] (setting [4]) turned out to be 2.04 µM.
